Laboratory results: patent US20070202578A1, “Production of globosides oligosaccharides using metabolically engineered microorganisms” (priority 2005, published 2007)

Molecular target: T1, LgtD protein (Haemophilus influenzae, UniProt Q57287)
T1 construct: made in house; host or cells: strain overexpressing lgtD; E. coli K12 derivative is inferred from the lgtD strains described, e.g. TA21 with pACT3-lgtD; used as crude extract
Test: enzymatic assays with crude extracts from a strain overexpressing the lgtD gene (donor Km with globotriose or globotetraose as acceptor)
Type: biochemical

T1 sequence (Q57287 whole entry): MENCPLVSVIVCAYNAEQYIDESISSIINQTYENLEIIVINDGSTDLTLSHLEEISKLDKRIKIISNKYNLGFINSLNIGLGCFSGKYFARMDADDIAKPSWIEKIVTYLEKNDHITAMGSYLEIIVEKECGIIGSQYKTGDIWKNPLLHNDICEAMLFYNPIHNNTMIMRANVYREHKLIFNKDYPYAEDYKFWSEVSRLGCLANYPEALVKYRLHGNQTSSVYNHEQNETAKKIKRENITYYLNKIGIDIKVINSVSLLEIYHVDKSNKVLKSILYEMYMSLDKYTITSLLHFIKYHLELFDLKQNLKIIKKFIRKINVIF

SMILES: CC(=O)N[C@H]1[C@@H](OP(=O)(O)OP(=O)(O)OC[C@H]2O[C@@H](n3ccc(=O)[nH]c3=O)[C@H](O)[C@@H]2O)O[C@H](CO)[C@H](O)[C@@H]1O [UDP-GalNAc]
- Km for UDP-GalNAc, fold lower than for UDP-Gal (globotriose as the acceptor): 6 fold
- fold increase in the Km for UDP-GalNAc (replacement of globotriose by globotetraose as the acceptor): 20 fold
